Measurements from PubChem BioAssay AID504342 (Broad Institute, 2011).
The source made the active and inactive calls.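 Rule for the calls: active = fitted curve reaches 10% of the positive control caspase activation at or below the top valid tested dose; inactive = signal shifts the opposite way, plus the rest.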

Assays:
[1] = caspase activation in Flag-A1-IRES-BIM MEFs, dose response, orthogonal assay for A1 inhibitor project, cell-based, MEF, plate reader, dry powder, set 2 (AID 504342); conditions: MEF Flag-A1-IRES-BIM, caspase-Glo luminescence, 3 h; at 35 µM (top of the series)
[2] = test system: MEF Flag-A1-IRES-BIM, caspase-Glo luminescence, 3 h; test: as above

Structure (SMILES): Cc1ccc(Sc2cc(=O)n(C)c3ccccc23)cc1
- caspase activation [1]: -6.4% (inactive)

Structure (SMILES): Cn1c(=O)c([N+](=O)[O-])c(Cl)c2ccccc21
- AC10 [2]: 1.11 µM

Structure (SMILES): Cc1ccc(Sc2c([N+](=O)[O-])cnc3ccccc23)cc1
- AC10 [2]: > 16 µM (inactive)

Structure (SMILES): O=c1oc2ccccc2c(Nc2cc(Cl)cc(Cl)c2)c1[N+](=O)[O-]
- caspase activation [1]: -0.897% (inactive)

Structure (SMILES): CCOC(=O)N1CCN(c2c([N+](=O)[O-])c(=O)n(C)c3ccccc23)CC1
- caspase activation [1]: -0.543% (inactive)

Structure (SMILES): Cn1c(=O)c([N+](=O)[O-])c(-n2cnc3ccccc32)c2ccccc21
- AC10 [2]: 15.1 µM

Structure (SMILES): C/C1=C/C(=O)O[C@@H]2C[C@@H](CC[C@H](C)/C=C\CC1)O[C@@](O)(C1CSC(=O)N1)C2 (stereo partly specified)
- caspase activation [1]: 2.78% (inactive)

Structure (SMILES): Cc1ccc(Sc2c([N+](=O)[O-])c(=O)n(C)c3ccccc23)cc1
- AC10 [2]: 5.09 µM

Structure (SMILES): CN1C(=O)C(C)(C)N(Cc2ccccc2)c2ccccc21
- caspase activation [1]: 1.13% (inactive)

Structure (SMILES): Cn1c(=O)c([N+](=O)[O-])c(Oc2ccccc2)c2ccccc21
- AC10 [2]: > 35 µM (inactive)

Structure (SMILES): O=c1oc2ccccc2c(Cl)c1[N+](=O)[O-]
- caspase activation [1]: -5.93% (inactive)

Structure (SMILES): Cc1ccc(Sc2c([N+](=O)[O-])c(=O)oc3ccccc23)cc1
- caspase activation [1]: -2.87% (inactive)

Structure (SMILES): Cc1ccc(Nc2c([N+](=O)[O-])c(=O)oc3ccccc23)cc1
- caspase activation [1]: 0.875% (inactive)

Structure (SMILES): Cc1ccc(Nc2c([N+](=O)[O-])c(=O)n(C)c3ccccc23)cc1
- caspase activation [1]: -0.435% (inactive)

Structure (SMILES): O=[N+]([O-])c1cnc2ccccc2c1Sc1ccccc1
- caspase activation [1]: -1.68% (inactive)

Structure (SMILES): O=C(Oc1cccc(/C=N/Nc2nc(Nc3ccccc3)nc(N3CCOCC3)n2)c1)c1ccco1
- caspase activation [1]: 2.95% (inactive)

Structure (SMILES): O=c1oc2ccccc2c(N2CCCCC2)c1[N+](=O)[O-]
- caspase activation [1]: -2.6% (inactive)

Structure (SMILES): O=c1oc2ccccc2c(Sc2ccccc2)c1[N+](=O)[O-]
- caspase activation [1]: -6.2% (inactive)

Structure (SMILES): CCOCCCNc1c([N+](=O)[O-])c(=O)n(C)c2ccccc12
- caspase activation [1]: 1.28% (inactive)

Structure (SMILES): CCSc1c([N+](=O)[O-])c(=O)oc2ccccc12
- caspase activation [1]: -1.44% (inactive)

Structure (SMILES): Cn1c(=O)c([N+](=O)[O-])c(Nc2ccc(Cl)cc2)c2ccccc21
- caspase activation [1]: -0.882% (inactive)
